Experiments:
[1] = in vivo; settings: dog
[2] = cited from earlier work
[3] = Crossover study of propranolol plasma levels after nasal, intravenous and oral administration in dogs
[4] = Bioavailability of propranolol from nasal solution vs oral and intravenous administration in rats (blood levels, AUC); settings: rat, FIG. 1
[5] = in vivo; settings: rat
[6] = rat, in vivo

Q: For `CC(C)NCC(O)COc1cccc2ccccc12` (centres unmarked) [propranolol, 1-(isopropylamino)-3-(1-naphthyloxy)-2-propanol], which bioavailability at 8 h ([1]; AUC(Nasal)/AUC(I.V.)) is on record?
A: 96.7%

Q: What about the bioavailability ([1]; bioavailability from the nasal route relative to the intravenous route) of the same compound?
A: 99.1%

Q: What about the bioavailability at 8 h ([1]; po, AUC(P.O.)/AUC(I.V.)) of the same compound?
A: 8.9%

Q: And the bioavailability ([1]; po, bioavailability from the oral route relative to the intravenous route)?
A: 7.4%

Q: And the “variation of plasma levels among subjects” value ([2]; human, intravenous, 10 mg, same five subjects)?
A: varied only two fold

Q: And the “variation of peak plasma levels among subjects” value ([2]; human, oral, 80 mg, five subjects)?
A: varied seven fold

Q: What about the “bioavailability (ratio of AUC of 80 mg oral dose and 10 mg I.V. dose)” value ([2]; human, oral, lowest in some subjects) of the same compound?
A: 16%

Q: What about the “absorption from oral dosage forms” value ([2]; oral dosage forms) of the same compound?
A: inefficiently and variably absorbed from oral dosage forms

Q: What about the “plasma levels after intravenous and nasal administration compared” value ([3]; dog, 20 mg, nasal vs I.V., FIG. 2) of the same compound?
A: virtually identical

Q: And the “plasma levels after oral administration” value ([3]; dog, 20 mg, oral compared with I.V. and nasal, FIG. 2)?
A: considerably lower plasma levels

Q: And the “absorption from the nasal mucosa into systemic blood” value ([3]; nasal, conclusion from dog study and rat study)?
A: rapidly absorbed from the nasal mucosa into systemic blood without the first pass metabolism

Q: What about the “blood level after nasal administration compared with intravenous administration” value ([4]; nasal 1 mg vs I.V. 1 mg) of the same compound?
A: identical to the blood level after intravenous administration

Q: And the “absorption from the nasal mucosa” value ([4]; nasal)?
A: very rapidly absorbed from the nasal mucosa

Q: What about the “blood level after oral administration” value ([4]; oral, same dosage level (1 mg), compared with nasal and I.V.) of the same compound?
A: considerably lower blood levels

Q: And the Tmax [5]?
A: ≤ 5 min

Q: What about the bioavailability at 4 h ([5]; Ratio (AUC nasal vs I.V.)) of the same compound?
A: 99.6%

Q: And the bioavailability at 4 h ([5]; po, Ratio (AUC oral vs I.V.))?
A: 17.9%

Q: What about the bioavailability at 4 h ([5]; po, oral bioavailability, AUC ratio (oral/I.V.)×100) of the same compound?
A: ~15%

Q: What about the “dependence of area under the blood level curve on dose” value [6] of the same compound?
A: directly proportional to the dose

Q: And the “oral bioavailability, AUC ratio (oral/nasal)×100” value ([6]; 240 min)?
A: about 15%
